The supplement of paper PMC11061612

What was measured:
[1] = compound: C[C@@H](c1ccc2nccn2c1)n1nnc2ncc(-c3cnn(C)c3)nc21 [Savolitinib]; conditions: max 1 µM
Procedure, shortened: (§1)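 Plates with 1536 wells received cancer cell lines in 7.5 μl of DMEM/F12 or RPMI containing 10% FBS. After 24 hours at 37°C and 5% CO2, cells were dosed for 72 hours with final DMSO typically 0.2%, and viability was read by CellTiter-Glo 2.0 luminescence scaled between blank-well and DMSO-well means. The single-agent IC50 was taken from a logistic fit of the dose responses made with a non-linear mixed effects model, that logistic curve having two parameters.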

[2] = compound: CCN(CCO)CCCOc1ccc2c(Nc3cc(CC(=O)Nc4cccc(F)c4)[nH]n3)ncnc2c1 [AZD2811]; conditions: max 1 µM
Procedure, shortened: as §1

[3] = compound: CCc1c2c(nc3ccc(O)cc13)-c1cc3c(c(=O)n1C2)COC(=O)[C@]3(O)CC [SN-38]; conditions: max 0.3 µM
Procedure, shortened: as §1

[4] = compound: C1CC(C1)(C(=O)[O-])C(=O)[O-].N.N.[Pt+2] [Carboplatin]; conditions: max 10 µM
Procedure, shortened: as §1

[5] = compound: C[C@@H](Oc1cc(-c2cnn(C3CCNCC3)c2)cnc1N)c1c(Cl)ccc(F)c1Cl [Crizotinib]; conditions: max 10 µM
Procedure, shortened: as §1

[6] = compound: C=CCn1c(=O)c2cnc(Nc3ccc(N4CCN(C)CC4)cc3)nc2n1-c1cccc(C(C)(C)O)n1 [AZD1775]; conditions: max 3 µM
Procedure, shortened: as §1

[7] = compound: O=C(c1cc(Cc2n[nH]c(=O)c3ccccc23)ccc1F)N1CCN(C(=O)C2CC2)CC1 [Olaparib]; conditions: max 10 µM
Procedure, shortened: as §1

[8] = compound: COc1cccc2c1C(=O)c1c(O)c3c(c(O)c1C2=O)C[C@@](O)(C(=O)CO)C[C@@H]3O[C@H]1C[C@H](N)[C@H](O)[C@H](C)O1 [Doxorubicin]; conditions: max 1 µM
Procedure, shortened: as §1

[9] = compound: CC(=O)c1c(C)c2cnc(Nc3ccc(N4CCNCC4)cn3)nc2n(C2CCCC2)c1=O [Palbociclib]; conditions: max 10 µM
Procedure, shortened: as §1

[10] = compound: COc1cc2ncnc(Nc3ccc(F)c(Cl)c3)c2cc1OCCCN1CCOCC1 [Gefitinib]; conditions: max 10 µM
Procedure, shortened: as §1

[11] = compound: CC(=O)O[C@H]1C(=O)[C@@]2(C)[C@H]([C@H](OC(=O)c3ccccc3)[C@]3(O)C[C@H](OC(=O)[C@H](O)[C@@H](NC(=O)c4ccccc4)c4ccccc4)C(C)=C1C3(C)C)[C@]1(OC(C)=O)CO[C@@H]1C[C@@H]2O [Paclitaxel]; conditions: max 3 µM
Procedure, shortened: as §1

[12] = compound: NC1(c2ccc(-c3nc4ccn5c(=O)[nH]nc5c4cc3-c3ccccc3)cc2)CCC1 [MK-2206]; conditions: max 10 µM
Procedure, shortened: as §1

[13] = compound: CN(CC[C@H](CSC1=CC=CC=C1)NC2=C(C=C(C=C2)S(=O)(=O)NC(=O)C3=CC=C(C=C3)N4CCC(CC4)[C@H](C5=CC=CC=C5C6=CC=C(C=C6)Cl)O)S(=O)(=O)C(F)(F)F)CCO [AZD4320]; conditions: max 1 µM
Procedure, shortened: as §1

[14] = compound: COc1cc(Nc2ncc3c(n2)-c2ccc(Cl)cc2C(c2c(F)cccc2OC)=NC3)ccc1C(=O)O [Alisertib]; conditions: max 10 µM
Procedure, shortened: as §1

[15] = compound: Nc1ccn([C@@H]2O[C@H](CO)[C@@H](O)C2(F)F)c(=O)n1 [Gemcitabine]; conditions: max 0.3 µM
Procedure, shortened: as §1

[16] = compound: N#Cc1cnc(Nc2cc(NC[C@H]3CNCCO3)c(C(F)(F)F)cn2)cn1 [SRA737]; conditions: max 10 µM
Procedure, shortened: as §1

[17] = compound: C[C@@H](Nc1cc(F)cc(F)c1)c1cc(C(=O)N(C)C)cc2c(=O)cc(N3CCOCC3)oc12 [AZD8186]; conditions: max 10 µM
Procedure, shortened: as §1

[18] = compound: CN(C)CCCOc1ccc(-c2ccc3ncc4c(c3c2)n(C2CCOCC2)c(=O)n4C)cn1 [AZD0156]; conditions: max 3 µM
Procedure, shortened: as §1

[19] = compound: CC(=O)Nc1cccc(-n2c(=O)n(C3CC3)c(=O)c3c(Nc4ccc(I)cc4F)n(C)c(=O)c(C)c32)c1 [Trametinib]; conditions: max 1 µM
Procedure, shortened: as §1

[20] = compound: CC1=CN2[C@@H](C1)C=NC3=CC(=C(C=C3C2=O)OC)OCCCCCOC4=C(C=C5C(=C4)N=C[C@@H]6CC(=CN6C5=O)C)OC [SG3199]; conditions: max 0.001 µM
Procedure, shortened: as §1

[21] = compound: Cc1c2c(nn1C)CSCc1cc(n(C)n1)CSc1cc(c3ccccc3c1)OCCCc1c(C(=O)O)n(C)c3c-2c(Cl)ccc13 [AZD5991]; conditions: max 1 µM
Procedure, shortened: as §1

[22] = compound: COc1cccc(OCCCN)c1-c1cc(Nc2cnc(C#N)cn2)n[nH]1 [Prexasertib]; conditions: max 1 µM
Procedure, shortened: as §1

[23] = compound: CC(C)n1c(=O)n(C)c2cnc3cc(F)c(-c4ccc(OCCCN5CCCCC5)nc4)cc3c21 [AZD1390]; conditions: max 0.3 µM
Procedure, shortened: as §1

[24] = compound: CC1=C(C(=CC=C1)Cl)NC(=O)C2=CN=C(S2)NC3=CC(=NC(=N3)C)N4CCN(CC4)CCO [Dasatinib]; conditions: max 2 µM
Procedure, shortened: as §1

[25] = compound: O=C(Nc1ccc2[nH]nc(-c3ccncc3)c2c1)[C@@H]1CCN(CC(=O)N2CCN(c3ccc(-c4ncccn4)cc3)CC2)C1; conditions: max 5 µM
Procedure, shortened: as §1

[26] = compound: Cn1cnc2c(F)c(Nc3ccc(Br)cc3Cl)c(C(=O)NOCCO)cc21 [Selumetinib]; conditions: max 10 µM
Procedure, shortened: as §1

[27] = compound: CC1(C)CCC(CN2CCN(c3ccc(C(=O)NS(=O)(=O)c4ccc(NCC5CCOCC5)c([N+](=O)[O-])c4)c(Oc4cnc5[nH]ccc5c4)c3)CC2)=C(c2ccc(Cl)cc2)C1 [Venetoclax]; conditions: max 1 µM
Procedure, shortened: as §1

[28] = compound: COc1nnc2ccc(N3CCC(c4ccc(OCCN5CCN(C)C(=O)[C@H]5C)cc4)CC3)nn12 [AZD5153]; conditions: max 1 µM
Procedure, shortened: as §1

[29] = compound: O=c1[nH]cc(F)c(=O)[nH]1 [5-Fluorouracil]; conditions: max 20 µM
Procedure, shortened: as §1

[30] = compound: Cc1cc2ncnn2cc1Nc1ncc2c(n1)n(C1CCOCC1)c(=O)n2C [AZD7648]; conditions: max 10 µM
Procedure, shortened: as §1

[31] = compound: Cc1nc(-c2cn3c(n2)-c2ccc(-c4cnn(C(C)(C)C(N)=O)c4)cc2OCC3)n(C(C)C)n1 [Taselisib]; conditions: max 10 µM
Procedure, shortened: as §1

[32] = compound: COc1cc([C@@H]2c3cc4c(cc3[C@@H](O[C@@H]3O[C@@H]5CO[C@@H](C)O[C@H]5[C@H](O)[C@H]3O)[C@H]3COC(=O)[C@H]23)OCO4)cc(OC)c1O [Etoposide]; conditions: max 10 µM
Procedure, shortened: as §1

[33] = compound: CS(=O)(=O)CCNCc1ccc(-c2ccc3ncnc(Nc4ccc(OCc5cccc(F)c5)c(Cl)c4)c3c2)o1 [Lapatinib]; conditions: max 10 µM
Procedure, shortened: as §1

[34] = compound: C[C@@H]1COCCN1C2=NC(=NC(=C2)C3(CC3)[S@](=N)(=O)C)C4=C5C=CNC5=NC=C4 [AZD6738]; conditions: max 10 µM
Procedure, shortened: as §1

[35] = compound: C1CN(CCC1(C(=O)N[C@@H](CCO)C2=CC=C(C=C2)Cl)N)C3=NC=NC4=C3C=CN4 [AZD5363]; conditions: max 10 µM
Procedure, shortened: as §1

Cell Line | IC50, cell viability 72 h [1] | IC50, cell viability 72 h [2] | IC50, cell viability 72 h [3] | IC50, cell viability 72 h [4] | IC50, cell viability 72 h [5] | IC50, cell viability 72 h [6] | IC50, cell viability 72 h [7] | IC50, cell viability 72 h [8] | IC50, cell viability 72 h [9] | IC50, cell viability 72 h [10] | IC50, cell viability 72 h [11] | IC50, cell viability 72 h [12] | IC50, cell viability 72 h [13] | IC50, cell viability 72 h [14] | IC50, cell viability 72 h [15] | IC50, cell viability 72 h [16] | IC50, cell viability 72 h [17] | IC50, cell viability 72 h [18] | IC50, cell viability 72 h [19] | IC50, cell viability 72 h [20] | IC50, cell viability 72 h [21] | IC50, cell viability 72 h [22] | IC50, cell viability 72 h [23] | IC50, cell viability 72 h [24] | IC50, cell viability 72 h [25] | IC50, cell viability 72 h [26] | IC50, cell viability 72 h [27] | IC50, cell viability 72 h [28] | IC50, cell viability 72 h [29] | IC50, cell viability 72 h [30] | IC50, cell viability 72 h [31] | IC50, cell viability 72 h [32] | IC50, cell viability 72 h [33] | IC50, cell viability 72 h [34] | IC50, cell viability 72 h [35]
RMG-I (Ovarian Carcinoma) | > 1000 nM | > 1000 nM | > 300 nM | > 10000 nM | > 10000 nM | > 3000 nM | > 10000 nM | > 1000 nM | > 10000 nM | > 10000 nM | > 3000 nM | > 10000 nM | 593 nM | > 10000 nM | > 300 nM | > 10000 nM | > 10000 nM | > 3000 nM | > 1000 nM | > 1 nM | > 1000 nM | 301 nM | > 300 nM | > 2000 nM | > 5000 nM | > 10000 nM | > 1000 nM | 647 nM | > 20000 nM | > 10000 nM | 8320 nM | > 10000 nM | > 10000 nM | > 10000 nM | > 10000 nM
SK-MM-2 (Plasma Cell Myeloma) | > 1000 nM | > 1000 nM | 76.4 nM | > 10000 nM | > 10000 nM | > 3000 nM | > 10000 nM | > 1000 nM | > 10000 nM | > 10000 nM | > 3000 nM | > 10000 nM | 3.02 nM | 1810 nM | > 300 nM | > 10000 nM | > 10000 nM | > 3000 nM | > 1000 nM | > 1 nM | > 1000 nM | 119 nM | > 300 nM | > 2000 nM | > 5000 nM | > 10000 nM | 2.5 nM | 32.5 nM | > 20000 nM | > 10000 nM | > 10000 nM | > 10000 nM | > 10000 nM | > 10000 nM | > 10000 nM
SW684 (Other Solid Carcinomas) | > 1000 nM | > 1000 nM | > 300 nM | > 10000 nM | > 10000 nM | > 3000 nM | > 10000 nM | > 1000 nM | > 10000 nM | > 10000 nM | 1430 nM | > 10000 nM | > 1000 nM | > 10000 nM | > 300 nM | > 10000 nM | > 10000 nM | > 3000 nM | > 1000 nM | > 1 nM | > 1000 nM | > 1000 nM | > 300 nM | > 2000 nM | > 5000 nM | > 10000 nM | > 1000 nM | > 1000 nM | > 20000 nM | > 10000 nM | 3530 nM | > 10000 nM | > 10000 nM | > 10000 nM | > 10000 nM
